Literature values in patent US20180221332A1, “Flash-Melt Cannabinoid Formulations” (CannTab Therapeutics Limited, priority 2017, published 2018).

How the values were obtained:
[1] = after administration
[2] = NICHD/FDA Oral Formulations Platform Report 1; low solubility, unknown permeability

Compound: CCCCCc1cc(O)c2c(c1)OC(C)(C)[C@@H]1CCC(C)=C[C@@H]21 [Dronabinol, (−)-trans-Δ^9-tetrahydrocannabinol]
- duration of appetite stimulant effect [1]: ≥ 24 h
- biopharmaceutics class [2]: class 2 or class 4
